Source: ChEMBL document CHEMBL1201862, “PubChem BioAssay data set” (2004)
Activity calls are given as the source filed them. For most assays here, no stated cut-off is given here; in the data, actives have a measured EC50 and inactives only a lower limit.

How the values were obtained:
H4 = assay: Luminescence Cell-Based Dose Response HTS to Identify Activators of 5'UTR Stem-Loop Driven Prion Protein mRNA Translation in H4 Neuroglioblastoma Cells. [Related pubchem assays: 1829 (Project Summary), 1814 (Primary HTS)]; type: functional; conditions: Homo sapiens
[1] = Luminescence Cell-Based Dose Response HTS to Identify Activators of Luciferase Translation or Activity in H4 […] Cells. [Related pubchem assays: 1829 (Project Summary), 1814 (Primary HTS)]; type: functional
[2] = Luminescence Cell-Based Dose Confirmation HTS to Identify Activators of 5'UTR Stem-Loop Driven Alpha-Synuclein mRNA Translation in H4 Neuroglioblastoma Cells. [Related pubchem assays: 1829 (Project Summary), 1814 (Primary HTS)]; type: functional
Cytochrome P450 2C9 = Cytochrome P450 2C9 (Homo sapiens, UniProt P11712)
[3] = biological target: T1, Corticotropin-releasing factor receptor 2/Corticotropin-releasing factor-binding protein (Homo sapiens, UniProt P24387+Q13324); assay: activators of CRF receptor 2 with binding protein – uHTS hits, confirmation (AID 602473); type: functional; conditions: read-out: EC50_Mean
T1 sequence (Q13324 whole entry): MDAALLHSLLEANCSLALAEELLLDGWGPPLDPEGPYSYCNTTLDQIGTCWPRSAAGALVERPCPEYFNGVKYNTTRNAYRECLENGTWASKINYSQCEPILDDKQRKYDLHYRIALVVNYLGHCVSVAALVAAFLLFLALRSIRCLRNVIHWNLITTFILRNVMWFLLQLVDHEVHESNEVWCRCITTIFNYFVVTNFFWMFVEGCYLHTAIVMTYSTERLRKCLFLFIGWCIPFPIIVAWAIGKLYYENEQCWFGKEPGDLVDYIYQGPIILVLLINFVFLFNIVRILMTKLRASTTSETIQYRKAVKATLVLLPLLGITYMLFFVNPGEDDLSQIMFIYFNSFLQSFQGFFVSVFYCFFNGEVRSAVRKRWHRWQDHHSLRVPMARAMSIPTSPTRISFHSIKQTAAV
T1 sequence (P24387 whole entry): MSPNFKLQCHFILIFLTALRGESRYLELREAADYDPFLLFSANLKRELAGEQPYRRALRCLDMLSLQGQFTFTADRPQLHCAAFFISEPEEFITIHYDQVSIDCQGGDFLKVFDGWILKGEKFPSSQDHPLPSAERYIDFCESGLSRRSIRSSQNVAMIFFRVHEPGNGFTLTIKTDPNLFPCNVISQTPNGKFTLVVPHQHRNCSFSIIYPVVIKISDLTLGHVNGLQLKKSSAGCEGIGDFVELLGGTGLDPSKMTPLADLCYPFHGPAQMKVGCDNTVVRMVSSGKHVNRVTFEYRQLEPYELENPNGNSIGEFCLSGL

[4] = inhibitors of intracellular T. cruzi replication, confirmation, NIH3T3 host cells, beta-gal luminescence (AID 2044); type: functional, cell-based;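 further: intracellular parasites grown in NIH/3T3 mouse fibroblasts as host cells; luminescent beta-galactosidase reporter signal from transgenic T. cruzi replicating inside host cells; inhibitors lower the luminescence signal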
[5] = cytotoxicity toward NIH3T3 fibroblasts, dose response, counter-screen, cell-based, ATP luminescence, mouse fibroblasts (AID 2010); type: functional;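 further: cells exposed to compound for about 90 hours before reading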
Streptokinase A = biological target: T2, Streptokinase A (Streptococcus pyogenes serotype M1, UniProt P10520); assay: S. pyogenes streptokinase expression inhibitors, potency, dose response, plasminogen activation absorbance, OD405 (AID 1914); type: functional, Streptococcus pyogenes M1 GAS;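 further: secreted streptokinase activity via plasminogen activation per viability signal from cell pellet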
T2 sequence (P10520 whole entry): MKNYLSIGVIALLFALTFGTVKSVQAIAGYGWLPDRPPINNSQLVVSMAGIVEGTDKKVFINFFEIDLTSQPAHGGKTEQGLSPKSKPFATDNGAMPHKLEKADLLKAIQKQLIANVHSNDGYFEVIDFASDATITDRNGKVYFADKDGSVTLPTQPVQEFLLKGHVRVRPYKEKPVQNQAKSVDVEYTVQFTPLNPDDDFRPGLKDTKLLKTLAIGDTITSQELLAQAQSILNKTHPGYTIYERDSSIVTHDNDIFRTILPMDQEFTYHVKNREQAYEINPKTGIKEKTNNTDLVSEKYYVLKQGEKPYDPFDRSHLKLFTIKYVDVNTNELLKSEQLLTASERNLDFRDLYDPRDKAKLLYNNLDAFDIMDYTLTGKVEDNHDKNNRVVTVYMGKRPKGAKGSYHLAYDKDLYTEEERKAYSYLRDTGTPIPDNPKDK

Streptococcus = assay: Group A Streptococcus viability loss, dose response, counter-screen for streptokinase expression inhibitor project, luminescence, BacTiterGlo (AID 1915); type: functional, organism-based;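 further: potency for reduction of bacterial viability or growth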
[6] = test system: Streptococcus sp. 'group A'; assay: growth inhibition of control SK(-) GAS strain, dose response, counter-screen for streptokinase expression inhibitor project, luminescence, kanamycin, BacTiterGlo, confirmation (AID 1900); type: functional, organism-based

Cytochrome P450 2C9, sequence (P11712 whole entry): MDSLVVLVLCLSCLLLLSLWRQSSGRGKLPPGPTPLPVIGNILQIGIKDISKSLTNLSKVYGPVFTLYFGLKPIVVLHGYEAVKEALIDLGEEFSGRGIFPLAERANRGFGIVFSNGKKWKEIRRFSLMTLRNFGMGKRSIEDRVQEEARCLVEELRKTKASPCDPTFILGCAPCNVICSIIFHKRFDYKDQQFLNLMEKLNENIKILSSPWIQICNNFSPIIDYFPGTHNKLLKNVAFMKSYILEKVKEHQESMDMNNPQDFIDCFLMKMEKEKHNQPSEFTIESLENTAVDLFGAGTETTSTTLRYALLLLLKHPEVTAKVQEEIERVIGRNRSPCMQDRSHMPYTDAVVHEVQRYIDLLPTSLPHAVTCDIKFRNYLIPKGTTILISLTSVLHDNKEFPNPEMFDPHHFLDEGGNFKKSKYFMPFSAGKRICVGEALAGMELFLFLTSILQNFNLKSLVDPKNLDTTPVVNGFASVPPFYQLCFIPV

## CC(C)c1ccc(CNc2ccc3c(c2)ncn3C)cc1
H4
  EC50: > 120 µM (not active)
[1]
  EC50: 0.228 µM (inconclusive)
[2]
  EC50: 0.217 µM (active)

## NC(=O)NCc1ccc(Cl)cc1
Cytochrome P450 2C9
  AC50: 0.0501 µM (inconclusive)

## CNC(=S)N1CCN(c2cccc(OC)c2)CC1
Cytochrome P450 2C9
  AC50: 22.4 µM (inconclusive)

## CC(C)c1ccc(NC(=O)N2CCc3ccccc3C2)cc1
H4
  EC50: 18.3 µM (active)
[1]
  EC50: 12.2 µM (active)
[2]
  EC50: 12.1 µM (active)

## Oc1nc2cc3c(cc2cc1C(c1nnnn1C1CCCCC1)N1CCSCC1)OCCO3 (centres undefined)
[3]
  EC50: > 53 µM (inactive)

## Cc1ccc(-c2nc3ccccc3n3nnnc23)cc1
H4
  EC50: 4.81 µM (active)
[1]
  EC50: 10.1 µM (active)
[2]
  EC50: 0.363 µM (active)

## CC1=CC(C)(C)N2C(=O)C3(C(C#N)=C(N)Oc4cc(C)oc(=O)c43)c3cc(C)cc1c32 (centres undefined)
[4]
  EC50: 0.253 µM (active)
[5]
  EC50: > 60 µM (not active)

## O=C(Nc1ccc(-n2ccc(C(F)(F)F)n2)cc1)Nc1cccc(Cl)c1
[4]
  EC50: 2.01 µM (active)
[5]
  EC50: 6.82 µM (active)

## O=C(/C=C/c1ccc([N+](=O)[O-])s1)N1CCN(c2ccccc2)CC1
[4]
  EC50: 1.81 µM (active)
[5]
  EC50: 9.18 µM (active)

## Cc1ccc(-c2nn(-c3ccccc3)cc2C(=O)Nc2ccc(C)c(S(=O)(=O)N3CCOCC3)c2)cc1
[4]
  EC50: 1.57 µM (active)
[5]
  EC50: > 60 µM (not active)
H4
  EC50: > 120 µM (not active)
[1]
  EC50: > 120 µM (not active)
[2]
  EC50: > 120 µM (not active)

## Cc1cc(Oc2ccccc2)nc(NCc2ccccc2)n1
Cytochrome P450 2C9
  AC50: 10 µM (inconclusive)

## CCOC(=O)c1sc(N(Cc2ccccc2)C(=O)CN2C(=O)CN(C)C2=O)nc1C
Cytochrome P450 2C9
  AC50: 11.2 µM (inconclusive)

## N#Cc1c(N)n(Cc2ccccc2)c(=O)c2cc([N+](=O)[O-])ccc12
[4]
  EC50: 1.41 µM (active)
[5]
  EC50: > 60 µM (not active)

## COc1cc2cc3c(N)c(C(=O)NCc4ccco4)sc3nc2cc1OC
H4
  EC50: 11.1 µM (active)
[1]
  EC50: 49.9 µM (active)
[2]
  EC50: 73.7 µM (active)

## CCOc1ccc(C(=O)Nc2c(C(=O)N3CCC(N4CCCCC4)CC3)oc3ccccc23)cc1
[4]
  EC50: 6.28 µM (active)
[5]
  EC50: > 60 µM (not active)

## COc1ccc2cc(C(=O)NCC3CCCO3)[nH]c2c1 (centres undefined)
[1]
  EC50: 22.9 µM (active)
[2]
  EC50: 7.02 µM (active)

## Cn1c(=O)c(-c2cccs2)nc2cnc(Oc3ccccc3)nc21
Cytochrome P450 2C9
  AC50: 20 µM (inconclusive)

## Cc1ccc(C2NC(=O)c3c(sc(C)c3C)N2)c(O)c1 (centres undefined)
H4
  EC50: 21.7 µM (active)
[1]
  EC50: 22.4 µM (active)
[2]
  EC50: 3.83 µM (active)

## CC(=O)c1cn(CCCCCCCCCCn2cc(C(C)=O)c(=O)[nH]c2=O)c(=O)[nH]c1=O
Cytochrome P450 2C9
  AC50: 3.16 µM (inconclusive)

## CCCOc1cccc(CN2CCCCC2c2cccnc2)c1 (centres undefined)
[4]
  EC50: 1.53 µM (active)
[5]
  EC50: > 60 µM (not active)

## Cc1cccc(N2CCN(C(c3ccncc3)c3nnnn3C(C)(C)C)CC2)c1C (centres undefined)
[4]
  EC50: 2.57 µM (active)
[5]
  EC50: > 60 µM (not active)

## CSCCC(=O)Nc1cc(S(=O)(=O)N2CCOCC2)ccc1N1CCN(C)CC1
[4]
  EC50: 1.94 µM (active)
[5]
  EC50: > 60 µM (not active)

## CCOc1ccc(/C=C/C(=O)C(C(N)=O)=C2SCCS2)cc1
H4
  EC50: 7.17 µM (active)
[1]
  EC50: > 120 µM (not active)
[2]
  EC50: 1.98 µM (active)

## Cc1cc(C)c(C)c(C(=O)CSc2nnc(-c3ccc4[nH]c(C)c(C)c4c3)o2)c1C
[4]
  EC50: 1.61 µM (active)
[5]
  EC50: > 60 µM (not active)

## O=[N+]([O-])c1cccc(-c2nnn(C34CC5CC(CC(C5)C3)C4)n2)c1
H4
  EC50: 15 µM (active)
[1]
  EC50: 7.38 µM (active)
[2]
  EC50: > 120 µM (not active)

## Cn1c(C(=O)NCc2cccnc2)cc2sc(Cl)cc21
[4]
  EC50: 0.488 µM (active)
[5]
  EC50: > 60 µM (not active)

## O=C(c1cnccn1)N1CCC2(CC1)CN(c1ccncc1)C2
Cytochrome P450 2C9
  AC50: 25.1 µM (inconclusive)

## O=C(NCCCn1ccnc1)c1sc2cccc(F)c2c1Cl
[4]
  EC50: 2.02 µM (active)
[5]
  EC50: > 60 µM (not active)

## Cc1ccc(CNC(=O)c2cccc3c2C(=O)c2ccc(N4CCCCC4)cc2S3(=O)=O)cc1
[3]
  EC50: 6.87 µM (active)

## CC1(C)OC2OC(COC(=O)c3ccccc3)C3OC(C)(C)OC3C2O1 (centres undefined)
H4
  EC50: 17.3 µM (active)
[1]
  EC50: 10.1 µM (active)
[2]
  EC50: 15.5 µM (active)

## COc1cccc(CC2(CO)CCCN(Cc3cc4ccccc4[nH]3)C2)c1 (centres undefined)
[4]
  EC50: 0.834 µM (active)
[5]
  EC50: > 60 µM (not active)
[3]
  EC50: 18.1 µM (active)

## CCOCCCN1C(=O)CN(C2CCCCC2)C(=O)C1c1ccc(OCC)c(OC)c1 (centres undefined)
Cytochrome P450 2C9
  AC50: 11.2 µM (inconclusive)

## c1ccc(-c2cc(-c3nc4ccccc4[nH]3)c3ccccc3n2)cc1
[4]
  EC50: 1.7 µM (active)
[5]
  EC50: > 60 µM (not active)

## CCCCOC(=O)c1[nH]c(C)c(C(=O)OC)c1C
H4
  EC50: 37.7 µM (active)
[1]
  EC50: 51.1 µM (active)
[2]
  EC50: 2.88 µM (active)

## Brc1ccccc1C1CC(c2ccccc2)=Nc2ccccc2N1 (centres undefined)
H4
  EC50: 36.5 µM (active)
[1]
  EC50: 11.5 µM (active)
[2]
  EC50: 9.58 µM (active)

## N=C(NOC(=O)C1CCCCC1)c1ccc(Br)cc1
H4
  EC50: 1.23 µM (active)
[1]
  EC50: 28.7 µM (active)
[2]
  EC50: 27.6 µM (active)

## CC1C(=O)OC2C1CCC1(C)CCC(=O)C(C)C21 (centres undefined)
[4]
  EC50: 2.61 µM (active)
[5]
  EC50: > 60 µM (not active)

## Cc1ccnc(NC(=O)CCCNC(=O)c2ccc(Cl)cc2)c1
H4
  EC50: 51.9 µM (active)
[1]
  EC50: 24.3 µM (active)
[2]
  EC50: 18.2 µM (active)

## Cc1cc(C)c2c(CN3CCC(C)CC3)cc(=O)oc2c1
H4
  EC50: 26.3 µM (active)
[1]
  EC50: > 120 µM (not active)
[2]
  EC50: 0.419 µM (active)

## CCC(C(=O)NCCCN1CCCC1=O)n1c2ccccc2c2nc(=O)cc(C)n21 (centres undefined)
Streptokinase A
  EC50: > 150 µM (not active)
Streptococcus
  EC50: > 150 µM (not active)
[6]
  EC50: > 150 µM (not active)

## CN(C(=O)c1cccc(N2C(=O)C3C4C=CC(C4)C3C2=O)c1)C1CCCCC1 (centres undefined)
H4
  EC50: > 120 µM (not active)
[1]
  EC50: > 120 µM (not active)
[2]
  EC50: > 120 µM (not active)

## COc1ccc2[nH]c3c(c2c1)CN(C)CC3
Cytochrome P450 2C9
  AC50: 39.8 µM (inconclusive)

## NC(=O)c1ccccc1Nc1nc2nc3ccccc3c(=O)n2cc1Br
H4
  EC50: > 120 µM (not active)
[1]
  EC50: 8.23 µM (active)
[2]
  EC50: > 120 µM (not active)

## CCc1ccc(NC(=O)C(C)OC(=O)/C=C/c2ccc(O)c(OC)c2)cc1 (centres undefined)
[3]
  EC50: 5.63 µM (active)

## CN(C)c1ccc(/C=C2\Oc3ccc(C#Cc4cccc(N)c4)cc3C2=O)cc1
[3]
  EC50: 5.04 µM (active)

## COc1ccc(NC(=N)Nc2nc(C)cc(C)n2)cc1
[3]
  EC50: 13.5 µM (active)

## Cc1cccc(CNc2ncncc2-c2cccc(NS(C)(=O)=O)c2)c1
Cytochrome P450 2C9
  AC50: 1 µM (inconclusive)

## O=c1c([N+](=O)[O-])cccn1Cc1ccc(F)cc1Cl
Streptokinase A
  EC50: > 150 µM (not active)
Streptococcus
  EC50: 7.88 µM (active)
[6]
  EC50: 3.27 µM (active)

## COc1ccc2c(c1OC)CN1CCc3cc4c(cc3C1C2)OCO4 (centres undefined) [TETRAHYDROBERBERINE]
[4]
  EC50: 3.43 µM (active)
[5]
  EC50: > 60 µM (not active)
